Measurements taken from patent publication US9527830B2 (Merck Sharp & Dohme Corp., priority 2011, dated 2016).
pIC50: −log10 of the molar value.

target: T1, hROMK1 (Kir1.1) (Homo sapiens, UniProt P48048); assay: ^86Rb^+ Efflux Assay; format: cell-based; settings: CHO-DHFR- cells stably expressing hROMK1; potency ranges
T1 construct: expressed in transfected cells
T1 sequence (P48048 1-391): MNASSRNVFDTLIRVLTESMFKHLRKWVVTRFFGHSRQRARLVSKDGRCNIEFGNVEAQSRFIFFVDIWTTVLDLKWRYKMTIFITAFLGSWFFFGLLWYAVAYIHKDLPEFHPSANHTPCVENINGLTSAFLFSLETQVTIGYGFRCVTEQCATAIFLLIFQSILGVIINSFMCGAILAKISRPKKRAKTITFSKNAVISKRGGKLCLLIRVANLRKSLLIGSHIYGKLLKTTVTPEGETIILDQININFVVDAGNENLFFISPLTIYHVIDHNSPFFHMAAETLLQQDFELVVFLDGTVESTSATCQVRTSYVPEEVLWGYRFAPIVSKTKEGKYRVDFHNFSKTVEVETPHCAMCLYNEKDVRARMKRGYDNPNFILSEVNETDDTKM
Method: (§1) Several assays may be used to measure functional inhibition of the ROMK channel by compounds of the instant invention. One primary assay that can be used is a functional ^86Rb^+ efflux assay that measures the ability of ROMK to permeate ^86Rb^+, in the absence or presence of test compound. Under control conditions, cells loaded with ^86Rb^+ and incubated in Rb^+-free medium display a time-dependent efflux of the isotope, the rate of which depends on number of functional channels. When cells are incubated in the presence of a channel inhibitor, efflux of ^86Rb^+ is prevented in a concentration-dependent manner, and IC50 values of inhibition by compounds can be accurately determined. This assay has been established with cell lines expressing either human, rat or dog ROMK channels, and can operate in 96- or 384-well format. Importantly, the human, rat, and dog ^86Rb^+ efflux assays can be carried out in the presence of up to 100% serum allowing, therefore, an accurate estimation of the effect of protein binding on the inhibitory activity of compounds of interest. Another ROMK functional assay makes use of the ability of thallium to permeate through open ROMK channels and increase the fluorescence of a dye previously loaded into the cells. Under control conditions, cells loaded with dye and exposed to thallium-containing medium display a time-dependent increase in fluorescence, the rate of which depends on number of functional channels. When cells are incubated in the presence of a channel inhibitor, the increase in fluorescence is attenuated in a concentration-dependent manner, and IC50 values of inhibition by compounds can be accurately determined. This assay has been established with cell lines expressing either human, or rat ROMK channels, and operates in 384-well format. Another assay for evaluation of the compounds of the instant invention and for evaluation of mechanism of action of compounds of Formula I relies on the measurement of the electrical current that is generated as potassium permeates through the channel. For these electrophysiological experiments, three different platforms, IonWorks, QPatch, or manual patch clamp, are used, depending on the experimental protocol under consideration. IonWorks operates in a 384-well format and allows accurate determination of IC50 values for inhibitors.
CHO-DHFR-cells stably expressing hROMK1 (Kir1.1) were grown at 37° C. in a 10% CO2 humidified incubator in Iscove's Modified Dulbecco's Medium (Gibco 12440) supplemented with HT Supplement, Penicillin/Streptomycin/Glutamine, G418 (500 μg/ml) and 10% FBS. Cells were seeded in Sterile and Tissue Culture Treated Packard CulturPlate White Opaque Microplates at a concentration of 5.0E5-7.0E5 cells/ml—PerkinElmer 6005680 (96-well); Corning 3707 (384 well) in complete media containing 1.5 μCi/ml Rubidium-86. Cells were incubated in 37° C.-10% CO2 incubator overnight. On the day of the experiment, the media was removed and cells washed with low K assay buffer. ^86Rb^+ efflux was initiated after addition of assay buffer±test compound followed by 35 min incubation at room temperature. ROMK-sensitive component of efflux was defined in the presence of 10 mM BaCl2. Assay buffer was removed and transferred to a plate and cells were solubilized in the presence of SDS. Radioactivity associated with assay and cell plate was determined.
• 1. Removed cell media and washed cells with low K assay buffer (126.9 mM NaCl, 4.6 mM KCl, 2 mM CaCl2, 1 mM MgCl2, 10 mM Hepes/NaOH; pH 7.4) • 200 μl for 96-well plate; 70 μl for 384-well plate • 2. Added assay buffer (121.5 mM NaCl, 10 mM KCl, 2 mM CaCl2, 1 mM MgCl2, 10 mM Hepes/NaOH; pH 7.4)±test compound to cells • 100 μl for 96-well plate; 50 μl for 384-well plate • 3. Incubated at ambient temperature (22-24° C.) for 35 min • 4.

Row | Structure (SMILES) | pIC50
1 | Cc1c(CCN2CCC(NCc3ccc(C#N)c(F)c3)CC2)ccc2c1COC2=O [Example 90, 2-Fluoro-4-[({1-[2-(4-methyl-1-oxo-1,3-dihydro-2-benzofuran-5-yl)ethyl]piperidin-4-yl}amino)methyl]benzonitrile] | ≥ 6.30
2 | Cc1c(C(O)CC2CCN(C[C@H](O)c3ccc4c(c3C)COC4=O)CC2)ccc2c1COC2=O (stereo partly drawn) [Example 86, 5-[(1R)-1-Hydroxy-2-{4-[2-hydroxy-2-(4-methyl-1-oxo-1,3-dihydro-2-benzofuran-5-yl)ethyl]piperidin-1-yl}ethyl]-4-methyl-2-benzofuran-1(3H)-one] | ≥ 6.70
3 | Cc1c(CC(O)C2CCN(C[C@H](O)c3ccc4c(c3C)COC4=O)CC2)ccc2c1COC2=O (stereo partly drawn) [Example 87, 5-[(1R)-1-Hydroxy-2-{4-[1-hydroxy-2-(4-methyl-1-oxo-1,3-dihydro-2-benzofuran-5-yl)ethyl]piperidin-1-yl}ethyl]-4-methyl-2-benzofuran-1(3H)-one] | ≥ 6.70

target: T2, hROMK (hKir1.1) (Homo sapiens, UniProt P48048); assay: Thallium Flux Assay (FluxOR, FLIPR-Tetra); format: cell-based; settings: HEK293 cells stably expressing hROMK; potency ranges
T2 construct: expressed in transfected cells
T2 sequence (P48048 1-391): T1 sequence (P48048 1-391)
Method: as §1
HEK293 cells stably expressing hROMK (hKir1.1) were grown at 37° C. in a 10% CO2 humidified incubator in complete growth media: Dulbecco's Modified Eagle Medium supplemented with non-essential amino acids, Penicillin/Streptomycin/Glutamine, G418 and FBS. At >80% confluency, media was aspirated from the flask and rinsed with 10 ml Calcium/Magnesium-free PBS. 5 ml of 1× trypsin (prepared in Ca/Mg Free PBS) was added to T-225 flask and flask returned to 37° C./CO2 incubator for 2-3 minutes. To dislodge the cell, the side of the flask was gently banged by hand. Cells were completely triturated and then transferred to 25 ml complete media, and centrifuged at 1,500 rpm for 6 min followed by resuspension in complete growth media and cell concentration determined. For typical re-seeding, 4E6 cells/T-225 flask attained >80% confluency in 4 days. Under ideal growth conditions and appropriate tissue culture practices, this cell line was stable for 40-45 passages.
FluxOR™ Kit Components (Invitrogen F10017)
• FluxOR™ Reagent (Component A) • FluxOR™ Assay Buffer (Component B)—10× Concentrate • PowerLoad™ Concentrate (Component C)—100× Concentrate • Probenecid (Component D)—Lyophilized sample was kept at −20° C. Water soluble, 100× after solubilization in 1 ml water. Store at 4° C. • FluxOR™ Chloride-free Buffer (Component E)—5× Concentrate • Potassium sulfate (K2SO4) Concentrate (Component F)—125 mM in water. Stored at 4° C. • Thallium sulfate (Tl2SO4) Concentrate (Component G)—50 mM in water. […]

Row | Structure (SMILES) | pIC50
4 | Cc1c([C@@H](O)CN2CCC(CSc3ccc(C#N)cn3)CC2)ccc2c1COC2=O [Example 100, 6-[({1-[(2R)-2-Hydroxy-2-(4-methyl-1-oxo-1,3-dihydro-2-benzofuran-5-yl)ethyl]piperidin-4-yl}methyl)sulfanyl]pyridine-3-carbonitrile] | ≥ 7.00
5 | Cc1c([C@@H](O)CN2CCC(C[S+]([O-])c3ccc4c(c3)CCOC4=O)CC2)ccc2c1COC2=O (stereo partly drawn) [Example 104, 6-[({1-[(2R)-2-Hydroxy-2-(4-methyl-1-oxo-1,3-dihydro-2-benzofuran-5-yl)ethyl]piperidin-4-yl}methyl)sulfinyl]-3,4-dihydro-1H-isochromen-1-one] | ≥ 7.00
6 | Cc1c([C@@H](O)CN2CCC(Nc3ccc(C#N)cn3)CC2)ccc2c1COC2=O [Example 111, (R)-6-(1-(2-Hydroxy-2-(4-methyl-1-oxo-1,3-dihydroisobenzofuran-5-yl)ethyl)piperidin-4-ylamino)nicotinonitrile] | ≥ 7.00
7 | Cc1c(C(O)CC2CCN(C(=O)Cc3ccc(-n4cnnn4)nc3)CC2)ccc2c1COC2=O (racemic) [Example 110, 5-[1-Hydroxy-2-(1-{[6-(1H-tetrazol-1-yl)pyridin-3-yl]acetyl}piperidin-4-yl)ethyl]-4-methyl-2-benzofuran-1(3H)-one] | ≥ 7.00
8 | Cc1c([C@@H](O)CN2CCC(CN(C)c3ccc(C#N)cn3)CC2)ccc2c1COC2=O [Example 93, 6-[({1-[(2R)-2-Hydroxy-2-(4-methyl-1-oxo-1,3-dihydro-2-benzofuran-5-yl)ethyl]piperidin-4-yl}methyl)(methyl)amino]pyridine-3-carbonitrile] | ≥ 6.70
9 | Cc1c(CCN2CCC(NCc3ccc(C#N)c(F)c3)CC2)ccc2c1COC2=O [Example 90, 2-Fluoro-4-[({1-[2-(4-methyl-1-oxo-1,3-dihydro-2-benzofuran-5-yl)ethyl]piperidin-4-yl}amino)methyl]benzonitrile] | ≥ 6.70
10 | Cc1c([C@@H](O)CN2CCC(F)(COc3ccc(C#N)cn3)CC2)ccc2c1COC2=O [Example 102, 6-({4-Fluoro-1-[(2R)-2-hydroxy-2-(4-methyl-1-oxo-1,3-dihydro-2-benzofuran-5-yl)ethyl]piperidin-4-yl}methoxy)pyridine-3-carbonitrile] | ≥ 6.70
11 | Cc1c([C@@H](O)CN2CCC(CS(=O)(=O)c3ccc4c(c3)CCOC4=O)CC2)ccc2c1COC2=O [Example 109, 6-[({1-[(2R)-2-Hydroxy-2-(4-methyl-1-oxo-1,3-dihydro-2-benzofuran-5-yl)ethyl]piperidin-4-yl}methyl)sulfonyl]-3,4-dihydro-1H-isochromen-1-one] | ≥ 7.00
12 | Cc1c(SCC2CCN(C[C@H](O)c3ccc4c(c3C)COC4=O)CC2)ccc2c1COC2=O [Example 94, 5-[({1-[(2R)-2-Hydroxy-2-(4-methyl-1-oxo-1,3-dihydro-2-benzofuran-5-yl)ethyl]piperidin-4-yl}methyl)sulfanyl]-4-methyl-2-benzofuran-1(3H)-one] | ≥ 7.00
13 | Cc1c([C@@H](O)CN2CCC(C)(COc3ccc(C#N)cn3)CC2)ccc2c1COC2=O [Example 107] | ≥ 7.00
14 | Cc1c([C@@H](O)CN2[C@@H]3CC[C@H]2CC(Nc2ccc(C#N)cn2)C3)ccc2c1COC2=O (stereo partly drawn) [Example 112, 6-((1R,5S)-8-((R)-2-Hydroxy-2-(4-methyl-1-oxo-1,3-dihydroisobenzofuran-5-yl)ethyl)-8-azabicyclo[3.2.1]octan-3-ylamino)nicotinonitrile] | ≥ 7.00
15 | Cc1c(C(O)CC2CCN(C[C@H](O)c3ccc4c(c3C)COC4=O)CC2)ccc2c1COC2=O (stereo partly drawn) [Example 86, 5-[(1R)-1-Hydroxy-2-{4-[2-hydroxy-2-(4-methyl-1-oxo-1,3-dihydro-2-benzofuran-5-yl)ethyl]piperidin-1-yl}ethyl]-4-methyl-2-benzofuran-1(3H)-one] | ≥ 7.00
16 | Cc1c([C@@H](O)CN2CCC(CSc3ccc4c(c3)CCOC4=O)CC2)ccc2c1COC2=O [Example 103, 6-[({1-[(2R)-2-Hydroxy-2-(4-methyl-1-oxo-1,3-dihydro-2-benzofuran-5-yl)ethyl]piperidin-4-yl}methyl)sulfanyl]-3,4-dihydro-1H-isochromen-1-one] | ≥ 6.70
17 | Cc1c([C@@H](O)CN2CCC(CS(=O)(=O)c3ccc4c(c3C)COC4=O)CC2)ccc2c1COC2=O [Example 99] | ≥ 7.00
18 | Cc1c(CC(O)C2CCN(C[C@H](O)c3ccc4c(c3C)COC4=O)CC2)ccc2c1COC2=O (stereo partly drawn) [Example 87, 5-[(1R)-1-Hydroxy-2-{4-[1-hydroxy-2-(4-methyl-1-oxo-1,3-dihydro-2-benzofuran-5-yl)ethyl]piperidin-1-yl}ethyl]-4-methyl-2-benzofuran-1(3H)-one] | ≥ 7.00
19 | Cc1c([C@@H](O)CN2CCC(C[S+]([O-])c3ccc4c(c3C)COC4=O)CC2)ccc2c1COC2=O (stereo partly drawn) [Example 96, 5-[({1-[(2R)-2-hydroxy-2-(4-methyl-1-oxo-1,3-dihydro-2-benzofuran-5-yl)ethyl]piperidin-4-yl}methyl)sulfinyl]-4-methyl-2-benzofuran-1(3H)-one] | ≥ 7.00
20 | Cc1c(OCC2CCN(C[C@H](O)c3ccc4c(c3C)COC4=O)CC2)ccc2c1COC2=O [Example 95, 5-({1-[(2R)-2-Hydroxy-2-(4-methyl-1-oxo-1,3-dihydro-2-benzofuran-5-yl)ethyl]piperidin-4-yl}methoxy)-4-methyl-2-benzofuran-1(3H)-one] | ≥ 7.00
21 | Cc1c([C@@H](O)CN2CC3C(COc4ccc(C#N)cn4)C3C2)ccc2c1COC2=O (stereo partly drawn) [Example 106, 6-({3-[(2R)-2-Hydroxy-2-(4-methyl-1-oxo-1,3-dihydro-2-benzofuran-5-yl)ethyl]-3-azabicyclo[3.1.0]hex-6-yl}methoxy)pyridine-3-carbonitrile] | ≥ 7.00
